We go through 1 compound from patent US20240245702A1, “Inhibition of Lysine Demethylase 1 (Lsd1) Induces Differentiation of Hair Cells” (Massachusetts Eye and Ear Infirmary, priority 2018, published 2024).

Holding throughout (type): cell-based, mouse
In one experiment the test system is Tcf/Lef. Kind of experiment: Tcf/Lef luciferase reporter assay of Wnt activity in inner ear organoids. The note with it: addition of pargyline to CHIR99021 or LYCH; luciferase at 48 hours. The method, then: Luciferase assay. Wnt activity was assessed in inner ear organoids using lentiviral vector expressing Firefly luciferase under the control of 7 Tcf binding sites (Fuerer and Nusse, 2010). Cochlear progenitor cells were dissected from sensory epithelia of wild-type neonatal mice using the established protocol described above (McLean et al., 2017). Dissociated cells were resuspended in proliferation media contain poly brene (Sigma) and lentivirus reporter (7TFC, Addgene #24307) and plated in 96 well plate coated with matrigel for 12-16 hours, [adapted from (Maru et al., 2016)]. The following day, media (containing dead cells and virus) was aspirated and a top layer of matrigel applied to the adherent cells and allowed to solidify, followed by addition of proliferation media. Media was changed every 2 days for 10 days as organoids developed. At day 10, media was changed to differentiation conditions with removal of growth factors and treatment with drug combinations described above. […] Luciferase was measured at 48 hours and normalized to total protein concentration.
Active canonical Wnt signaling is facilitated by the nuclear translocation of β-catenin, which binds with transcription factors of the Tcf/Lef family to activate transcription. […] We also analyzed Wnt activity in the treated cells using a Tcf/Lef reporter assay.
(Reporter assays use an easily measured gene product as a stand-in for the process of interest.)

Experiment [1] deals with Lgr5-expressing cochlear progenitors cells (LCPs). Kind of experiment: Proliferation of Lgr5+ cochlear progenitors (LCPs) in organoid culture. The settings on record: first 10 days in culture, Lgr5-nGFP mice cells, combined with CHIR99021. The method, then: Isolation and expansion of inner ear Lgr5+ cells. A recently published protocol was used to derive organoids from inner ear stem cells [also referred to as Lgr5+ cochlear progenitors (LCPs) (McLean et al., 2017). Briefly, the organ of Corti was dissected from neonatal mice (postnatal days 2-5) in Hank's balanced salt solution and treated with Cell Recovery Solution (Corning) for 1 hour. The cochlear epithelium was then peeled from the underlying mesenchyme, collected and treated with TrypleE for 20 minutes at 37° C. The single cells were mechanically triturated, filtered ([…] cell strainer) and suspended in a Matrigel (Corning) dome for 3D culture. The cells were seeded in a 24-well plate, specifically at one cochlea per well of a 24-well plate.
For the drug screening experiments, the expanded cells were passaged into a 96 well plate to test varying drug combinations. All experiments were done in triplicate at minimum. Atoh1-nGFP cells were quantified after 10 days in culture. The cell colonies were incubated in Cell Recovery Solution for 1 hour and dissociated into single cells using TrypleE. The total cell number and percentage of GFP+ cells were quantified using fluorescence activated cell sorting (FACS).
We screened a collection of Lsd1 inhibitors over the first 10 days in culture (FIGS. 9A and 9B) to examine their effect on proliferation of LCPs (FIGS. 9C and 9D). […]

Another experiment concerns Myo7a. Kind of experiment: qRT-PCR of Myo7a in differentiated LCP organoids. The settings on record: D10, pargyline-treated cells relative to standard treatment, p<0.05. The method, then: Differentiation of LCPs into a hair cell lineage. […] To analyze the effect of the Lsd1 inhibitors, the LCPs were treated with the small molecules combined with a differentiation drug cocktail, pargyline and CHIR99021 or CHIR99021 at 1, 2, 4, and 10 days (McLean et al., 2017).
RNA extraction and PCR. For the LCPs, the organoids were treated with Cell Recovery Solution for at 1 hour and TrypleE for 20 minutes, then frozen in RLT buffer. RNA extractions were performed using the RNeasy Micro Kit (QIAGEN) and cDNA generated using ImProm-II Reverse Transcription Kit (Promega). TaqMan Real-Time PCR was performed in triplicates using the TaqMan Gene Expression Master Mix (ThermoFisher Scientific) on a StepOne Real-Time PCR machine (ThermoFisher Scientific). Ordinary One-way Anova was used to assess statistical significance. A minimum of three biologically distinct samples were analyzed for each condition.
We next tested the effect of Lsd1 inhibition on hair cell differentiation. In this assay, after the cells were expanded into organoids during the initial proliferation phase, differentiation was initiated using the combination of CHIR99021 and LY411575 and allowed to progress for 10 days (DO to D10). Organoids were monitored for the development of hair cells using FACS and qRT-PCR. […] Conversely, Myo7a expression increases throughout development and is a key marker of mature hair cells. […]
(In general: Real-time PCR tracks product formation cycle by cycle.)

In the case of `C#CCN(C)Cc1ccccc1` [pargyline, N-Methyl-N-propargylbenzylamine], the Tcf/Lef activity result in the experiment on Tcf/Lef is on record as “no significant difference”. In addition, the “proliferation of Lgr5 cells (LCP cell division)” value in experiment [1] was 26%. For the same compound, the Myo7a expression result in the experiment with Myo7a is “significantly upregulated”.
